Experimental data as given in US6380238B1, “Indoline derivatives as 5-HT2B and or 5-HTC receptor ligands” (Vernalis Research Limited, priority 1998, dated 2002).
Counter-ions that a name gives are not always drawn. Like-named read-outs stand apart in the source and are kept apart here.

Legend:
[1] = target: 5-HT2A receptor (Homo sapiens, UniProt P28223); test: Functional activity, FLIPR calcium assay in CHO cells expressing human 5-HT2A; assay type: cell-based; set-up: expressed in transfected cells; host or cells: CHO cells; conditions: for Emax: CHO, read-out: h5-HT2A Relative Efficacy (%)
5-HT2A receptor, sequence (P28223 whole entry): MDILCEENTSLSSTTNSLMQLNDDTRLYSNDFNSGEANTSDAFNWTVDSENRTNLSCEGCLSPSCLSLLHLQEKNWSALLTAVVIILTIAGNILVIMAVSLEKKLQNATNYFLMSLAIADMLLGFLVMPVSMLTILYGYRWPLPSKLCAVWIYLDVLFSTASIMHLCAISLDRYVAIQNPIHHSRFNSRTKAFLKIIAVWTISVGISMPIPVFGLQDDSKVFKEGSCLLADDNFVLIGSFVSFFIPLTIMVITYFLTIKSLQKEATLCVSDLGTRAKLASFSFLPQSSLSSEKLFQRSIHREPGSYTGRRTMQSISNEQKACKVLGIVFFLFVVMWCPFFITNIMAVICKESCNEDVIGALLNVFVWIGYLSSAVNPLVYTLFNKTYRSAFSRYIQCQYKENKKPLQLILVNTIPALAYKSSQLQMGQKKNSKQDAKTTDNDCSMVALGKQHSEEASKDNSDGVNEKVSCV
Description: (§1) The functional activity of compounds of formula (I) was assayed using a Fluorimetric Imaging Plate reader (FLIPR). CHO cells expressing the human 5-HT2C or human 5-HT2A receptors were counted and plated into standard 96 well microtitre plates on the day before testing to give a confluent monolayer. The cells were then dye loaded with the calcium sensitive dye, Fluo-3-AM. Unincorporated dye was removed using an automated cell washer to leave a total volume of 100 μL/well of assay buffer (Hanks balanced salt solution containing 20 mM Hepes and 2.5 mM probenecid). The drug (dissolved in 50 μL of the assay buffer) was added at a rate of 70 μL/sec to each well of the FLIPR 96 well plate during fluorescence measurements. The measurements were taken at 1 sec intervals and the maximum fluorescent signal was measured (approx 10-15 secs after drug addition) and compared with the response produced by 10 μM 5-HT (defined as 100%) to which it was expressed as a percentage response (relative efficacy). Dose response curves were constructed using Graphpad Prism (Graph Software Inc.).

[2] = target: T1, 5-HT2C receptor (Homo sapiens, UniProt P28335); test: Functional activity, FLIPR calcium assay in CHO cells expressing human 5-HT2C; assay type: cell-based; set-up: expressed in transfected cells; host or cells: CHO cells; conditions: for Emax: CHO, read-out: h5-HT2C Relative Efficacy (%)
T1 sequence (P28335 33-458): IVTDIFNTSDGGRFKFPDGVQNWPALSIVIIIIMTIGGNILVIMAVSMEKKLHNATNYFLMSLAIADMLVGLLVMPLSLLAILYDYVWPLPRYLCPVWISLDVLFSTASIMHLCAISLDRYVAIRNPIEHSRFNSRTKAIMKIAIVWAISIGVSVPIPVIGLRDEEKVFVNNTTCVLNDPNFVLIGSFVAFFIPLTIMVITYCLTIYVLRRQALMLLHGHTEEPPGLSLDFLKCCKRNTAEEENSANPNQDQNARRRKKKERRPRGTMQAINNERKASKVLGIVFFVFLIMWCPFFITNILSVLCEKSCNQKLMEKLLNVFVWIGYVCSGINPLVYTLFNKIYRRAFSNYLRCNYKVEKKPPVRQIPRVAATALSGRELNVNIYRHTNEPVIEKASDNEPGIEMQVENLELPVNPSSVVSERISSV
Description: as §1

[3] = FLIPR, CHO cells, Fluo-3-AM, read-out: h5-HT2C EC50

| melting point | SMILES | EC50 [1] [nM] | Emax [1] [%] | EC50 [2] [nM] | Emax [2] [%] | other results |
| --- | --- | --- | --- | --- | --- | --- |
| 153 to 154 °C | C[C@H](N)CN1CCc2ccc(-c3ccccc3)cc21.O=C(O)/C=C/C(=O)O |  |  |  |  |  |
| 178 to 179 °C | CC(N)CN1CCc2ccc(OCc3ccccc3)cc21 (stereo not drawn) |  |  |  |  |  |
| 178 to 179 °C | Cc1ccc2c(c1)N(CC(C)N)CC2 (stereo not drawn) (as salt: HCl) |  |  |  |  |  |
| 188 to 190 °C | CC(N)CN1CCc2c(OCc3ccccc3)cccc21 (stereo not drawn) (as salt: HCl) |  |  |  |  |  |
| 155 to 156 °C | C[C@@H](CN1CCc2ccc(Br)cc21)NCC1CC1 (as salt: HCl) |  |  |  |  |  |
| 151 to 153 °C | CC(C)CN[C@@H](C)CN1CCc2ccc(Br)cc21 (as salt: HCl) |  |  |  |  |  |
| 161 to 163 °C | CC(C)CCN[C@@H](C)CN1CCc2ccc(Br)cc21 (as salt: HCl) |  |  |  |  |  |
| 208 to 210 °C | C[C@@H](CN1CCc2ccc(Br)cc21)NCC1CCCCC1 (as salt: HCl) |  |  |  |  |  |
| 202 to 204 °C | C[C@@H](CN1CCc2ccc(Br)cc21)NCc1ccncc1 (as salt: HCl) |  |  |  |  |  |
| 188 to 192 °C | CCC(N)CN1CCc2ccc(Cl)cc21 (stereo not drawn) (as salt: HCl) |  |  |  |  |  |
| 213 to 214 °C | C[C@@H](N)CN1CCc2ccc(Cl)c(Cl)c21 (as salt: fumarate) |  |  |  |  |  |
| 155 to 156 °C (dec.) | COc1cccc2c1N(C[C@H](C)N)CC2 (as salt: fumarate) |  |  |  |  |  |
| 144 to 146 °C | CN(C)CCN1CCc2ccc(Cl)cc21 (as salt: fumarate) |  |  |  |  |  |
| 154 to 158 °C | CC(N)CN1CCc2ccc(C(F)(F)F)cc21 (stereo not drawn) (as salt: fumarate) |  |  |  |  |  |
| 143 to 144 °C | CC(N)CN1CCc2cc(OCc3ccccc3)ccc21 (stereo not drawn) (as salt: fumarate) (hydrate or solvate) |  |  |  |  |  |
|  | COc1ccc2c(c1)N(CC(C)N)CC2 (racemic) [Example 2, (RS)-1-(6-Methoxyindolin-1-yl)-2-propylamine Hydrochloride] | 1000 | 63 | 100 | 77 |  |
|  | C[C@H](N)CN1CCc2ccc(F)cc21 [Example 9] | 5600 | 52 | 253 | 89 |  |
|  | Cc1cc2c(cc1Cl)N(C[C@H](C)N)CC2 [Example 14] | 3700 | 55 | 2120 | 71 |  |
|  | C[C@H](N)CN1CCc2cc(F)cc(Cl)c21 [Example 17] | 7500 | 40 | 616 | 76 |  |
|  | C[C@@H](N)CN1CCc2ccc(Br)cc21 [Example 18] |  | 7 | 870 | 27 |  |
|  | C[C@@H](N)CN1CCc2cccc(Br)c21 [Example 19] |  | 21 | 3800 | 34 |  |
|  | C[C@H](N)CN1CCc2cccc(Br)c21 [Example 20] |  | 17 | 750 | 68 |  |

| melting point | SMILES | EC50 [1] [nM] | Emax [1] [%] | EC50 [2] [nM] | Emax [2] [%] | other results |
| --- | --- | --- | --- | --- | --- | --- |
|  | C[C@H](N)CN1CCc2ccc(Cl)c(Cl)c21 [Example 23] | 1350 | 34 | 354 | 76 |  |
|  | C[C@H](N)CN1CCc2ccc(Cl)c(F)c21 [Example 27] | 1980 | 41 | 233 | 75 |  |
|  | C[C@H](N)CN1CCc2cc(Cl)ccc21 [Example 28] | 1540 | 63 | 238 | 75 |  |
|  | C[C@H](N)CN1CCc2cc(F)ccc21 [Example 29] | 3170 | 18 | 503 | 68 |  |
|  | CSc1cc2c(cc1F)CCN2CC(C)N (stereo not drawn) [Example 30] | 72 | 88 | 0.1 | 95 |  |
|  | CCSc1cc2c(cc1F)CCN2C[C@H](C)N [Example 31] | 314 | 72 | 2 | 92 |  |
|  | Cc1cccc2c1CCN2C[C@H](C)N [Example 32] | 1520 | 26 | 611 | 63 |  |
|  | C[C@H](N)CN1CCc2cc(Br)ccc21 [Example 33] | 2930 | 51 | 257 | 75 |  |
|  | C[C@H](N)CN1CCc2c(F)cccc21 [Example 35] |  | 30 | 727 | 51 |  |
|  | CCc1cccc2c1N(C[C@H](C)N)CC2 [Example 37] | 2730 | 27 | 391 | 69 |  |
|  | C[C@H](N)CN1CCc2c(Cl)cccc21 [Example 38] | 2560 | 26 | 320 | 63 |  |
|  | CSc1ccc2c(c1)N(C[C@H](C)N)CC2 [Example 39] | 260 | 75 | 4 | 87 |  |
|  | CCSc1ccc2c(c1)N(C[C@H](C)N)CC2 [Example 40] | 836 | 64 | 3 | 95 |  |
|  | CCCSc1ccc2c(c1)N(C[C@H](C)N)CC2 [Example 41] |  |  | 67 | 83 |  |
|  | CC(C)Sc1ccc2c(c1)N(C[C@H](C)N)CC2 [Example 42] | 4200 | 43 | 54 | 88 |  |
|  | C[C@H](N)CN1CCc2ccc(-c3cccnc3)cc21 [Example 47] |  | 5 | 3540 | 33 |  |
|  | C[C@H](N)CN1CCc2ccc(N3CCOCC3)cc21 [Example 49, (S)-1-[6-(4-Morpholinyl)indolin-1-yl]-2-propylamine Fumarate] |  | 5 |  | 69 | EC50 [2, 3]: 5480 nM |
|  | NCCN1CCc2ccc([N+](=O)[O-])cc21 [Example 53, 2-(6-Nitroindolin-1-yl)-1-ethylamine Fumarate] |  | 20 |  | 86 | EC50 ([1]; FLIPR, CHO cells, Fluo-3-AM, read-out: h5-HT2A EC50): 2310 nM; EC50 [2, 3]: 266 nM |
|  | C[C@H](N)CN1CCc2cc(F)c(C(F)(F)F)cc21 [Example 60, (S)-1-(5-Fluoro-6-trifluoromethylindolin-1-yl)-2-propylamine Fumarate] |  |  | 36 | 81 |  |
|  | C[C@H](N)CN1CCc2cc(F)c(I)cc21 [Example 61, (S)-1-(5-Fluoro-6-iodoindolin-1-yl)-2-propylamine Fumarate] | 2180 | 49 | 26 | 68 |  |
|  | Cc1cc2c(cc1F)CCN2C[C@H](C)N [Example 62, (S)-1-(5-Fluoro-6-methylindolin-1-yl)-2-propylamine Fumarate] |  |  | 329 | 54 |  |
|  | Cc1ccc2c(c1)N(C[C@H](C)N)CC2 [Example 64, (S)-1-(6-Methylindolin-1-yl)-2-propylamine Fumarate] |  | 30 | 303 | 66 |  |

| SMILES | melting point | EC50 [1] [nM] | Emax [1] [%] | EC50 [2] [nM] | Emax [2] [%] | other results |
| --- | --- | --- | --- | --- | --- | --- |
| C[C@H](N)CN1CCc2ccc(F)cc21 (as salt: fumarate) [Example 9] | 150 to 153 °C |  |  |  |  |  |
| COc1ccc2c(c1)N(C[C@H](C)N)CC2 (as salt: fumarate) [Example 13] | 175 to 176 °C |  |  |  |  |  |
| Cc1cc2c(cc1Cl)N(C[C@H](C)N)CC2 (as salt: fumarate) [Example 14] | 172 to 174 °C |  |  |  |  |  |
| C[C@H](N)CN1CCc2cc(F)cc(Cl)c21 (as salt: fumarate) [Example 17] | 195 to 196 °C |  |  |  |  |  |
| C[C@@H](N)CN1CCc2cccc(Br)c21 (as salt: fumarate) [Example 19] | 197 °C |  |  |  |  |  |
| C[C@H](N)CN1CCc2cccc(Br)c21 (as salt: fumarate) [Example 20] | 202 to 204 °C |  |  |  |  |  |
| C[C@H](N)CN1CCc2cc(F)c(F)cc21 (as salt: fumarate) [Example 22] | 165 °C (dec.) |  |  |  |  |  |
| C[C@H](N)CN1CCc2ccc(Cl)c(Cl)c21 (as salt: fumarate) [Example 23] | 176 to 178 °C |  |  |  |  |  |
| C[C@H](N)CN1CCc2ccc(C(F)(F)F)cc21 (as salt: fumarate) [Example 24] | 197 to 199 °C |  |  |  |  |  |
| C[C@H](N)CN1CCc2cc(F)c(Br)cc21 (as salt: fumarate) [Example 25] | 195 to 196 °C |  |  |  |  |  |
| C[C@@H](N)CN1CCc2ccc(C(F)(F)F)cc21 (as salt: fumarate) [Example 26] | 196 to 197 °C |  |  |  |  |  |
| C[C@H](N)CN1CCc2cc(Cl)ccc21 (as salt: fumarate) [Example 28] | 207 to 210 °C |  |  |  |  |  |
| C[C@H](N)CN1CCc2cc(F)ccc21 (as salt: fumarate) [Example 29] | 175 to 176 °C |  |  |  |  |  |
| CSc1cc2c(cc1F)CCN2CC(C)N (stereo not drawn) (as salt: fumarate) [Example 30] | 96 to 100 °C |  |  |  |  |  |
